Where two headings read alike, the source gives them in different places.
System: Wnt/β-catenin transcription
Test: Wnt-3A-stimulated TOPFlash reporter assay in HEK293 cells
Type: cell-based
Conditions: for IC50: Wnt-3A conditioned medium, 8 hour treatment, read-out: Inhibition Wnt/β-catenin transcription TopFlash IC50
Method: Stably transfected cells were seeded in 100 μl of cell growth medium/well in 96-well plates at 100% confluency. Fifty microliters of Wnt-3A conditioned medium containing the chemical compounds to be tested or DMSO was added to each well. After an 8 hour treatment, the cells were washed once with PBS and lysed with 55 μl of Passive Lysis Buffer supplied in the Dual-Luciferase Reporter Assay kit (Promega, Madison, Wis.). Twenty-five microliters of cell lysate was used for measuring luciferase activity in a 96-well plate reader (FluoStar Optima, BMG Labtech, Chicago, Ill.). Data were fit using GraphPad Prism (mean±SEM, n>=2).

With `O=C(Nc1ccc([N+](=O)[O-])cc1)c1cc(Cl)ccc1O` [B, 5-chloro-2-hydroxy-N-(4-nitrophenyl)benzamide, reference compound] as the compound, how does the IC50 read?
Its IC50 is over 12 µM.

How did the “Inhibition Wnt/β-catenin transcription TopFlash, % inhibition @ 1 μM” value turn out when `Cc1ccc(S(=O)(=O)Nc2ccccc2C(=O)Nc2ccc([N+](=O)[O-])cc2)cc1` [C, 2-((4-methylphenyl)sulfonamido)-N-(4-nitrophenyl)benzamide, reference compound] was run?
The value was 47% inhibition.

How did the IC50 (Homo sapiens, HEK293, 8 h) turn out when `O=C(Nc1c(F)cccc1F)c1cc(Cl)ccc1O` [Compound 21, 5-chloro-N-(2,6-difluorophenyl)-2-hydroxybenzamide] was run?
Its IC50 is over 12 µM.

Which “Inhibition Wnt/β-catenin transcription TopFlash, % inhibition @ 3 μM” value (3 μM) does the source give for `Cc1cc([N+](=O)[O-])ccc1NC(=O)c1cc(Cl)ccc1O` [Compound 26, 5-chloro-2-hydroxy-N-(2-methyl-4-nitrophenyl)benzamide] here?
The value was 80% inhibition.

How did the inhibition at 2 µM (Homo sapiens, HEK293, 8 h) turn out when `O=C(Nc1ccc(OCc2ccccc2)c(Cl)c1)c1cc(Cl)ccc1O` [Compound 27, N-(4-(benzyloxy)-3-chlorophenyl)-5-chloro-2-hydroxybenzamide] was run?
The inhibition at 2 µM was 75%.

`O=C(Nc1ccc(C(F)(F)F)cc1Br)c1cc(Cl)ccc1O` [Compound 28, N-(2-bromo-4-(trifluoromethyl)phenyl)-5-chloro-2-hydroxybenzamide] was tested. Which “Inhibition Wnt/β-catenin transcription TopFlash, % inhibition @ 1 μM” value did it give?
The value was 82% inhibition.

With `O=C(CCCCCNC(=O)CCCCC1SCC2NC(=O)NC21)NCCCCCC(=O)NCCOCCOCCOc1cc([N+](=O)[O-])ccc1NC(=O)c1cc(Cl)ccc1O` (stereo not shown) [Compound 29, 5-chloro-2-hydroxy-N-(4-nitro-2-((10,17,24-trioxo-28-(2-oxohexahydro-1H-thieno[3,4-d]imidazol-4-yl)-3,6-dioxa-9,16,23-triazaoctacosyl)oxy)phenyl)benzamide] as the compound, how does the IC50 (Homo sapiens, HEK293, 8 h) read?
Its IC50 is over 12 µM.

With `C=CCOc1cc([N+](=O)[O-])ccc1NC(=O)c1cc(Cl)ccc1O` [Compound 30, N-(2-(allyloxy)-4-nitrophenyl)-5-chloro-2-hydroxybenzamide] as the compound, how does the inhibition at 10 µM (Homo sapiens, HEK293, 8 h) read?
The inhibition at 10 µM was 98%.

How did the inhibition at 2 µM (Homo sapiens, HEK293, 8 h) turn out when `O=CCOc1cc([N+](=O)[O-])ccc1NC(=O)c1cc(Cl)ccc1O` [Compound 31, 5-chloro-2-hydroxy-N-(4-nitro-2-(2-oxoethoxy)phenyl)benzamide] was run?
Its inhibition at 2 µM is 55%.

Which inhibition at 10 µM (Homo sapiens, HEK293, 8 h) does the source give for `O=C(Nc1ccc([N+](=O)[O-])c(F)c1)c1cc(Cl)ccc1O` [Compound 32, 5-chloro-N-(3-fluoro-4-nitrophenyl)-2-hydroxybenzamide] here?
Its inhibition at 10 µM is 90%.

`C#CCOc1cc([N+](=O)[O-])ccc1NC(=O)c1cc(Cl)ccc1O` [Compound 33, 5-chloro-2-hydroxy-N-(4-nitro-2-(prop-2-yn-1-yloxy)phenyl)benzamide] was tested. Which inhibition at 2 µM (Homo sapiens, HEK293, 8 h) did it give?
The inhibition at 2 µM was 45%.

With `O=C(Nc1ccc([N+](=O)[O-])c(N2CCOCC2)c1)c1cc(Cl)ccc1O` [Compound 34, 5-chloro-2-hydroxy-N-(3-morpholino-4-nitrophenyl)benzamide] as the compound, how does the inhibition at 10 µM (Homo sapiens, HEK293, 8 h) read?
The inhibition at 10 µM was 40%.

For `COc1cc(NC(=O)c2cc(Cl)ccc2O)ccc1[N+](=O)[O-]` [Compound 35, 5-chloro-2-hydroxy-N-(3-methoxy-4-nitrophenyl)benzamide], which inhibition at 10 µM (Homo sapiens, HEK293, 8 h) is on record?
The inhibition at 10 µM was 40%.

`O=C(Nc1ccc([N+](=O)[O-])c(Cl)c1)c1cc(Cl)ccc1O` [Compound 36, 5-chloro-N-(3-chloro-4-nitrophenyl)-2-hydroxybenzamide] was tested. Which inhibition at 2 µM (Homo sapiens, HEK293, 8 h) did it give?
The inhibition at 2 µM was 90%.

Which inhibition at 2 µM (Homo sapiens, HEK293, 8 h) does the source give for `C#CCOc1cc(N=[N+]=[N-])ccc1NC(=O)c1cc(Cl)ccc1O` [Compound 37, N-(4-azido-2-(prop-2-yn-1-yloxy)phenyl)-5-chloro-2-hydroxybenzamide] here?
Its inhibition at 2 µM is 40%.

How did the inhibition at 2 µM (Homo sapiens, HEK293, 8 h) turn out when `O=C(Nc1ccc(C(F)(F)F)c(Cl)c1)c1cc(Cl)ccc1O` [Compound 38, 5-chloro-N-(3-chloro-4-(trifluoromethyl)phenyl)-2-hydroxybenzamide] was run?
Its inhibition at 2 µM is 90%.

`C#CCCCCOc1cc([N+](=O)[O-])ccc1NC(=O)c1cc(Cl)ccc1O` [Compound 39, 5-chloro-N-(2-(hex-5-yn-1-yloxy)-4-nitrophenyl)-2-hydroxybenzamide] was tested. Which inhibition at 2 µM (Homo sapiens, HEK293, 8 h) did it give?
The inhibition at 2 µM was 80%.

Which IC50 (Homo sapiens, HEK293, 8 h) does the source give for `O=C(Nc1ccccc1)c1ccc(NC(=O)c2cc(Cl)ccc2O)cc1` [Compound 40, 5-chloro-2-hydroxy-N-(4-(phenylcarbamoyl)phenyl)benzamide] here?
The IC50 was 33 µM.

How did the “Inhibition Wnt/β-catenin transcription TopFlash, % inhibition @ 1 μM” value turn out when `O=C(Nc1ccc([N+](=O)[O-])cc1Cl)c1cc(-c2ccccc2)ccc1O` [Compound 41, N-(2-chloro-4-nitrophenyl)-4-hydroxy-[1,1′-biphenyl]-3-carboxamide] was run?
The value was 90% inhibition.

How did the inhibition at 2 µM (Homo sapiens, HEK293, 8 h) turn out when `O=C(Nc1ccc([N+](=O)[O-])cc1Cl)c1cc(-c2ccc(F)cc2F)ccc1O` [Compound 42, N-(2-chloro-4-nitrophenyl)-2′,4′-difluoro-4-hydroxy-[1,1′-biphenyl]-3-carboxamide] was run?
Its inhibition at 2 µM is 90%.

For `O=C(Nc1ccc(C(F)(F)F)cc1Cl)c1c(O)ccc2ccccc12` [Compound 43, N-(2-chloro-4-(trifluoromethyl)phenyl)-2-hydroxy-1-naphthamide], which “Inhibition Wnt/β-catenin transcription TopFlash, % inhibition @ 5 μM” value is on record?
Its value is 50% inhibition.

Which “Inhibition Wnt/β-catenin transcription TopFlash, % inhibition @ 5 μM” value does the source give for `O=C(Nc1ccc(C(F)(F)F)cc1Cl)c1cc2ccccc2cc1O` [Compound 44, N-(2-chloro-4-(trifluoromethyl)phenyl)-3-hydroxy-2-naphthamide] here?
Its value is 80% inhibition.

With `O=C(Nc1ccc(C(F)(F)F)cc1Cl)c1ccc2ccccc2c1O` [Compound 45, N-(2-chloro-4-(trifluoromethyl)phenyl)-1-hydroxy-2-naphthamide] as the compound, how does the “Inhibition Wnt/β-catenin transcription TopFlash, % inhibition @ 5 μM” value read?
The value was 60% inhibition.

`COc1cc(O)c(C(=O)Nc2ccc([N+](=O)[O-])cc2Cl)cc1OC` [Compound 46, N-(2-chloro-4-nitrophenyl)-2-hydroxy-4,5-dimethoxybenzamide] was tested. Which “Inhibition Wnt/β-catenin transcription TopFlash, result in words” value (up to 12 μM) did it give?
Its value is “No inhibit. up”.

With `COc1cc(O)c(C(=O)Nc2ccc(OCc3ccccc3)c(Cl)c2)cc1OC` [Compound 47, N-(4-(benzyloxy)-3-chlorophenyl)-2-hydroxy-4,5-dimethoxybenzamide] as the compound, how does the “Inhibition Wnt/β-catenin transcription TopFlash, result in words” value (concentration not given) read?
The value was “stimulates”.

How did the inhibition at 10 µM (Homo sapiens, HEK293, 8 h) turn out when `Cc1ccc(S(=O)(=O)Nc2ccc(Br)cc2C(=O)Nc2ccc(C(F)(F)F)cc2)cc1` [Compound 48, 5-bromo-2-((4-methylphenyl)sulfonamido)-N-(4-(trifluoromethyl)phenyl)benzamide] was run?
Its inhibition at 10 µM is 93%.

Which “Inhibition Wnt/β-catenin transcription TopFlash, result in words” value (up to 12 μM) does the source give for `O=C(Nc1ccc(C(F)(F)F)cc1)c1cnc2ccccc2c1O` [Compound 49, 4-hydroxy-N-(4-(trifluoromethyl)phenyl)quinoline-3-carboxamide] here?
Its value is “Stimulates up”.

Which inhibition at 10 µM (Homo sapiens, HEK293, 8 h) does the source give for `CS(=O)(=O)Nc1ccc(Cl)cc1C(=O)Nc1ccc([N+](=O)[O-])cc1Cl` [Compound 51, 5-chloro-N-(2-chloro-4-nitrophenyl)-2-(methylsulfonamido)benzamide] here?
Its inhibition at 10 µM is 70%.

With `COc1ccc(C(=O)Nc2ccc([N+](=O)[O-])cc2Cl)c(O)c1` [Compound 53, N-(2-chloro-4-nitrophenyl)-2-hydroxy-4-methoxybenzamide] as the compound, how does the inhibition at 2 µM (Homo sapiens, HEK293, 8 h) read?
The inhibition at 2 µM was 70%.

With `COc1cc(O)c(C(=O)Nc2ccc([N+](=O)[O-])cc2Cl)cc1Cl` [Compound 54, 5-chloro-N-(2-chloro-4-nitrophenyl)-2-hydroxy-4-methoxybenzamide] as the compound, how does the “Inhibition Wnt/β-catenin transcription TopFlash, % inhibition @ 1 μM” value read?
The value was 70% inhibition.

For `COc1cc(O)c(C(=O)Nc2ccc(F)cc2Cl)cc1Cl` [Compound 55, 5-chloro-N-(2-chloro-4-fluorophenyl)-2-hydroxy-4-methoxybenzamide], which inhibition at 10 µM (Homo sapiens, HEK293, 8 h) is on record?
The inhibition at 10 µM was 70%.

For `COc1cc(O)c(C(=O)Nc2cccc(Cl)c2)cc1Cl` [Compound 56, 5-chloro-N-(3-chlorophenyl)-2-hydroxy-4-methoxybenzamide], which “Inhibition Wnt/β-catenin transcription TopFlash, result in words” value (up to 10 μM) is on record?
The value was “No inhibition”.

With `C=CCOc1cc([N+](=O)[O-])ccc1NC(=O)c1cc(Cl)ccc1OC(C)=O` [Compound 60, 2-((2-(allyloxy)-4-nitrophenyl)carbamoyl)-4-chlorophenyl acetate] as the compound, how does the inhibition at 2 µM (Homo sapiens, HEK293, 8 h) read?
Its inhibition at 2 µM is 80%.

`CCCCCCCCCCCCCCCCCC(=O)Oc1ccc(Cl)cc1C(=O)Nc1ccc([N+](=O)[O-])cc1Cl` [Compound 62, 4-chloro-2-((2-chloro-4-nitrophenyl)carbamoyl)phenyl stearate] was tested. Which inhibition at 10 µM (Homo sapiens, HEK293, 8 h) did it give?
The inhibition at 10 µM was 70%.

How did the IC50 (Homo sapiens, HEK293, 8 h) turn out when `CCCCCCC(=O)Oc1ccc(Cl)cc1C(=O)Nc1ccc([N+](=O)[O-])cc1Cl` [Compound 63, 4-chloro-2-((2-chloro-4-nitrophenyl)carbamoyl)phenyl heptanoate] was run?
Its IC50 is 0.5 µM.

Which “Inhibition Wnt/β-catenin transcription TopFlash, % inhibition @ 0.5 μM” value does the source give for `CC(C)C(=O)Oc1ccc(Cl)cc1C(=O)Nc1ccc([N+](=O)[O-])cc1Cl` [Compound 64, 4-chloro-2-((2-chloro-4-nitrophenyl)carbamoyl)phenyl isobutyrate] here?
Its value is 70% inhibition.

Which “Inhibition Wnt/β-catenin transcription TopFlash, % inhibition @ 0.5 μM” value does the source give for `CC(C)(C)OC(=O)CCC(=O)Oc1ccc(Cl)cc1C(=O)Nc1ccc([N+](=O)[O-])cc1Cl` [Compound 65, tert-butyl (4-chloro-2-((2-chloro-4-nitrophenyl)carbamoyl)phenyl) succinate] here?
The value was 60% inhibition.

For `CCCC(CCC)C(=O)Oc1ccc(Cl)cc1C(=O)Nc1ccc([N+](=O)[O-])cc1Cl` [Compound 66, 4-chloro-2-((2-chloro-4-nitrophenyl)carbamoyl)phenyl 2-propylpentanoate], which “Inhibition Wnt/β-catenin transcription TopFlash, % inhibition @ 0.5 μM” value is on record?
Its value is 30% inhibition.

With `O=C(CCCCCN1C(=O)C=CC1=O)Oc1ccc(Cl)cc1C(=O)Nc1ccc([N+](=O)[O-])cc1Cl` [Compound 67, 4-chloro-2-((2-chloro-4-nitrophenyl)carbamoyl)phenyl 6-(2,5-dioxo-2,5-dihydro-1H-pyrrol-1-yl)hexanoate] as the compound, how does the “Inhibition Wnt/β-catenin transcription TopFlash, % inhibition @ 0.5 μM” value read?
The value was 75% inhibition.

`CCCCCCCC/C=C\CCCCCCCC(=O)Oc1ccc(Cl)cc1C(=O)Nc1ccc([N+](=O)[O-])cc1Cl` [Compound 68, 4-chloro-2-((2-chloro-4-nitrophenyl)carbamoyl)phenyl oleate] was tested. Which inhibition at 2 µM (Homo sapiens, HEK293, 8 h) did it give?
Its inhibition at 2 µM is 60%.

Source: patent US10905665B2, “Chemical modulators of signaling pathways and therapeutic use” (Duke University, priority 2015, dated 2021)
